Like-named read-outs stand apart in the source and are kept apart here.
Columns and labels:
Bel-7402 cells = assay: MTT antiproliferative assay, Bel-7402; type: cell-based, human; conditions: Homo sapiens, Bel-7402; MTT, 72 h, mean ± S.D. of three experiments
Experimental: [The source words this procedure for another cell line and reports this cell line under the same test.] (§1) Cytotoxicity assay in vitro was employed by the MTT assay following the methodology described previously, which was performed in flat-bottomed 96-well plates. In short, exponentially growing MGC-803 cells at the log phase were added to each well at a density of 5 × 10^3 per well, then treated with serial dilutions of the compounds in three replicates at various concentrations (0.039–40 µg/mL). After 72 h, 20 µL of MTT solution (5 mg/mL) per well was added to each cultured medium. Then, DMSO was added to each well (150 µL/well). After 10 min at room temperature, the absorbance (OD) was read on a microplate reader at the wavelength of 490 nm (BIO-RAD Instruments Inc. 550, Hercules, CA, USA). In these experiments, taxol was used as the positive reference with the concentration of 10 µg/mL.

L-02 normal liver cells = assay: MTT antiproliferative assay, L-02; type: cell-based; conditions: for IC50: 72 h, read-out: antiproliferative activity IC50, L-02
Experimental: [The source words this procedure for another cell line and reports this cell line under the same test.] as §1

K562 cells = assay: MTT antiproliferative assay, K562; type: cell-based, human; conditions: Homo sapiens, K562; MTT, 72 h, mean ± S.D. of three experiments
Experimental: [The source words this procedure for another cell line and reports this cell line under the same test.] as §1

MGC-803 cells = assay: MTT antiproliferative assay, MGC-803; type: cell-based, human; conditions: Homo sapiens, MGC-803; MTT, 72 h, mean ± S.D. of three experiments
Experimental: as §1

CaEs-17 cells = assay: MTT antiproliferative assay, CaEs-17; type: cell-based, human; conditions: Homo sapiens, CaEs17; MTT, 72 h, mean ± S.D. of three experiments
Experimental: [The source words this procedure for another cell line and reports this cell line under the same test.] as §1

[1] = MTT, mean ± S.D. of three experiments

Structure (SMILES)	IC50 (Bel-7402 cells) [µM]	IC50 (K562 cells) [µM]	IC50 (MGC-803 cells) [µM]	IC50 (L-02 normal liver cells; [1]) [µM]	SI (selectivity index) (L-02 normal liver cells; selectivity between tumor and normal liver cells)	IC50 (CaEs-17 cells) [µM]	IC50 (L-02 normal liver cells) [µM]
C=C1C(=O)[C@]23[C@H](O)[C@H]1CC[C@H]2[C@@]12CO[C@]3(O)[C@@H](O)[C@@H]1C(C)(C)CC[C@@H]2O [Compound 1, oridonin, reference compound]	7.48 ± 0.32	4.76 ± 0.32	5.69 ± 0.39	18.3 ± 0.8	about 2.4	11 ± 1	
O=C(O)CCC(=O)OCCOc1no[n+]([O-])c1S(=O)(=O)c1ccccc1 [Compound 7a]	22 ± 0.8	22.6 ± 2	25.4 ± 1.5	37.8 ± 1.3		24.3 ± 0.9	
O=C(O)CCCC(=O)OCCOc1no[n+]([O-])c1S(=O)(=O)c1ccccc1 [Compound 7b]	22.3 ± 1.6	24.2 ± 2.5	22.2 ± 2.5	39.6 ± 1.4		25.7 ± 1.4	
O=C(O)c1ccccc1C(=O)OCCOc1no[n+]([O-])c1S(=O)(=O)c1ccccc1 [Compound 7c]	19.6 ± 1	22.6 ± 1.7	24.6 ± 1.4	41.3 ± 2.9		23.8 ± 1	
O=C(O)CCC(=O)OCCCOc1no[n+]([O-])c1S(=O)(=O)c1ccccc1 [Compound 7d]	17.8 ± 1.4	17.5 ± 1.4	18.5 ± 0.8	37.4 ± 0.8		19.8 ± 1.3	
O=C(O)CCCC(=O)OCCCOc1no[n+]([O-])c1S(=O)(=O)c1ccccc1 [Compound 7e]	18.6 ± 0.8	18.5 ± 1.6	20 ± 1.1	36.3 ± 2.1		18.7 ± 1	
O=C(O)c1ccccc1C(=O)OCCCOc1no[n+]([O-])c1S(=O)(=O)c1ccccc1 [Compound 7f]	16.7 ± 0.8	17.5 ± 1	19.3 ± 0.6	35.8 ± 1.3		19.2 ± 0.7	
O=C(O)CCC(=O)OCCCCOc1no[n+]([O-])c1S(=O)(=O)c1ccccc1 [Compound 7g]	22.7 ± 1	24 ± 1.4	20.6 ± 1.7	39.4 ± 2.6		25.7 ± 0.7	
O=C(O)CCCC(=O)OCCCCOc1no[n+]([O-])c1S(=O)(=O)c1ccccc1 [Compound 7h]	21.3 ± 0.7	24.5 ± 1.4	23.5 ± 1	35.4 ± 1.4		22.9 ± 1.4	
O=C(O)c1ccccc1C(=O)OCCCCOc1no[n+]([O-])c1S(=O)(=O)c1ccccc1 [Compound 7i]	22.4 ± 1.6	23 ± 1.2	21.6 ± 1.5	37.9 ± 2.8		24.8 ± 1.5	
C=C1C(=O)C23C(=O)OC4CCC(C)(C)C5C(=O)OCC45C2CCC1C3O (centres unmarked) [Compound 9]	16 ± 1.1	2.64 ± 0.19	5.84 ± 0.57			23.7 ± 1.8	26.4 ± 1.3
CC(=O)O[C@H]1C(=O)[C@@]2(C)[C@H]([C@H](OC(=O)c3ccccc3)[C@]3(O)C[C@H](OC(=O)[C@H](O)[C@@H](NC(=O)c4ccccc4)c4ccccc4)C(C)=C1C3(C)C)[C@]1(OC(C)=O)CO[C@@H]1C[C@@H]2O [Taxol, reference compound]	1.89 ± 0.09	0.41 ± 0.02	4.65 ± 0.29	3.73 ± 0.17		0.43 ± 0.03	

Second part, led by results:

IC50 (Bel-7402 cells) [µM]	IC50 (K562 cells) [µM]	IC50 (MGC-803 cells) [µM]	Structure (SMILES)	IC50 (L-02 normal liver cells; [1]) [µM]	SI (selectivity index) (L-02 normal liver cells; selectivity between tumor and normal liver cells)	IC50 (CaEs-17 cells) [µM]	IC50 (L-02 normal liver cells) [µM]
1.91 ± 0.09	2.86 ± 0.05	2.84 ± 1.12	C=C1C(=O)C23C(=O)OC4CCC(C)(C)C5C(=O)OCC45C2CCC1C3OC(=O)CCC(=O)OCCOc1no[n+]([O-])c1S(=O)(=O)c1ccccc1 (centres unmarked) [Compound 10a]	24.4 ± 0.8		5.68 ± 0.53	
1.75 ± 0.12	2.9 ± 0.17	2.67 ± 0.24	C=C1C(=O)C23C(=O)OC4CCC(C)(C)C5C(=O)OCC45C2CCC1C3OC(=O)CCCC(=O)OCCOc1no[n+]([O-])c1S(=O)(=O)c1ccccc1 (centres unmarked) [Compound 10b]	22.1 ± 1.3		5.56 ± 0.06	
1.01 ± 0.04	1.97 ± 0.18	1.6 ± 0.15	C=C1C(=O)C23C(=O)OC4CCC(C)(C)C5C(=O)OCC45C2CCC1C3OC(=O)c1ccccc1C(=O)OCCOc1no[n+]([O-])c1S(=O)(=O)c1ccccc1 (centres unmarked) [Compound 10c]	31.2 ± 1.2		4.02 ± 0.14	
1.17 ± 0.02	2.04 ± 0.1	2.03 ± 0.15	C=C1C(=O)C23C(=O)OC4CCC(C)(C)C5C(=O)OCC45C2CCC1C3OC(=O)CCC(=O)OCCCOc1no[n+]([O-])c1S(=O)(=O)c1ccccc1 (centres unmarked) [Compound 10d]	27.4 ± 1		4.84 ± 0.47	
1.12 ± 0.09	2.02 ± 0.17	1.91 ± 0.09	C=C1C(=O)C23C(=O)OC4CCC(C)(C)C5C(=O)OCC45C2CCC1C3OC(=O)CCCC(=O)OCCCOc1no[n+]([O-])c1S(=O)(=O)c1ccccc1 (centres unmarked) [Compound 10e]	29.3 ± 0.9		4.04 ± 0.23	
1.85 ± 0.11	2.82 ± 0.22	2.8 ± 0.09	C=C1C(=O)C23C(=O)OC4CCC(C)(C)C5C(=O)OCC45C2CCC1C3OC(=O)CCC(=O)OCCCCOc1no[n+]([O-])c1S(=O)(=O)c1ccccc1 (centres unmarked) [Compound 10g]	33.9 ± 1.5		5.52 ± 0.08	
1.65 ± 0.12	2.78 ± 0.2	2.65 ± 0.16	C=C1C(=O)C23C(=O)OC4CCC(C)(C)C5C(=O)OCC45C2CCC1C3OC(=O)CCCC(=O)OCCCCOc1no[n+]([O-])c1S(=O)(=O)c1ccccc1 (centres unmarked) [Compound 10h]	29.8 ± 0.9		5.48 ± 0.21	
1.09 ± 0.09	2.06 ± 0.16	1.64 ± 0.12	C=C1C(=O)C23C(=O)OC4CCC(C)(C)C5C(=O)OCC45C2CCC1C3OC(=O)c1ccccc1C(=O)OCCCCOc1no[n+]([O-])c1S(=O)(=O)c1ccccc1 (centres unmarked) [Compound 10i]	27.7 ± 1.3		4.13 ± 0.29	

Source: publication PMC6272893, “NO-Releasing Enmein-Type Diterpenoid Derivatives with Selective Antiproliferative Activity and Effects on Apoptosis-Related Proteins” (Molecules, 2016)
